The results in this text go back to PMC5823870 (Scientific Reports, 2018).

Data set [1] addresses Blh DUF442 domain (ST domain) (Xylella fastidiosa, UniProt Q9PFB0). Particulars: 12 mM potassium phosphate pH 7.4, 25 °C; 12 mM thiosulfate; cyanide as sulfur acceptor.
The test system of a further data set is O=S(O)(O)=S. Briefly: purified protein. Particulars: 12 mM potassium phosphate pH 7.4, 25 °C, cyanide 12 mM as sulfur acceptor (methods print potassium cyanate), thiosulfate 0 to 100 mM.

Chain of Blh DUF442 domain (ST domain) (Q9PFB0 1-141 limits assumed): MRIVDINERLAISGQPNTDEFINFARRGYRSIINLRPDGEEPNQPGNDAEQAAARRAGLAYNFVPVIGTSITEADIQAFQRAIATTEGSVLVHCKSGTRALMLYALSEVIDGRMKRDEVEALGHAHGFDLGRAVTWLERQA

As to `O=S(=O)(O)S` [thiosulfate], in data set [1], the “rhodanese assay, iron-thiocyanate absorbance at 460 nm” value is “catalyze the transfer of the sulfane sulfur of thiosulfate to cyanide”.

With “full-length Blh (Xylella fastidiosa 9a5c)”, the Michaelis constant (Km) in the data set with O=S(O)(O)=S is 6.2 mM.
